Experimental data as given in patent US11925645B2, “Enhanced caffeinated beverage composition” (Ortho-Nutra, LLC, priority 2013, dated 2024).
Read-outs that look alike come from different tables or passages of the source.

What was measured:
[1] = 7-day open-label repeated dose study of TC (N=6): VAS subjective measures; type: in vivo, human; settings: 200 mg dose of theacrine over 7 days
Procedure: A subset of 6 subjects underwent a separate 7-day, open-label, repeated dose study comparing 100 mg, 200 mg and 400 mg of TC. The experiment was a randomized, placebo-controlled, double-blind, within-subject crossover clinical trial (for N=15 study). A further subset study was open-label, sub-acute (7-day), repetitive dosing trial (for N=6 subset). Six (6) subjects provided written and dated informed consent to participate in the 7-day repetitive dosing study between Dec. 15, 2012 and Feb. 21, 2013. A separate cohort of fifteen (15) subjects provided written and dated informed consent for the acute dose, placebo-controlled, crossover clinical trial. All subjects were in good health as determined by physical examination and medical history, between the ages of 18 and 45 (inclusive). […] Subjects were willing and able to comply with the experimental and supplement protocol. Physical activity levels and health history were determined using standardized questionnaires. Heart rate and blood pressure were measured using an Omron HEM-780. Standing height was determined using a wall-mounted stadiometer. […] Medical Scale. A 100 mm anchored VAS questionnaire for energy, fatigue, and concentration was distributed at each acute lab session; additional VAS questionnaires were distributed for the daily assessment over a 6-hour period during the 7-day subset study. Quest Diagnostics (Pittsburgh, Pa.) was utilized to transport and analyze all blood samples.

[2] = Theacrine-caffeine interaction study: single oral dose plasma pharmacokinetics (LC-MS/MS, noncompartmental); type: in vivo, human; settings: for Vd/F: read-out: Vd/F; for MRT: read-out: MRT; for half-life: read-out: t1/2 (converted)
From the text: Theacrine pharmacokinetics in humans has not been systematically characterized. Therefore, one purpose of this study, among others, was to determine theacrine pharmacokinetics and dose-linearity following oral administration in humans.
Eight healthy nonsmokers, including 4 men and 4 women, were recruited for the experiment.
Study Design and Procedures. […] Theacrine, administered as iTeaCrine.®, was provided by Compound Solutions (Carlsbad, Calif). […] Treatment sequence was randomized using a 4×4 Latin square. There was an approximate 1-week washout period between treatments for all subjects.
Test Visit Procedures. […] A catheter was inserted into the forearm vein for blood sampling. Duplicate measurements of resting heart rate and blood pressure were taken pre-dose and prior to each timed blood sample. In addition, respiratory rate was counted in one minute and body temperature was measured using an ear scanning thermometer (dual readings taken at each time).
All subjects were instructed to consume their usual diet throughout the study period, with the exception of the actual days of testing. During the two days prior to each test day, subjects recorded all food and drink consumed and attempted to mimic this intake for the two-day period prior to subsequent visits. Diet records were analyzed using nutrient analysis software (Food Processor SQL, version 9.9; ESHA Research, Salem, Oreg.). For the actual test days, standardized meals (meal replacement food bars [Clif “Builder's 20 g Protein Bar”] and ready-to-drink shakes [Orgain Organic Nutrition™]) were provided to the subjects after sample collection at hour 2 and hour 6 (one shake and one-half bar at each time). Subjects were also provided with adequate meal replacement bars and shakes to consume following the 8 hour sample collection. (during their time outside the lab). Each bar contained 280 calories, 10 grams of fat, 29 grams of carbohydrate, and 20 grams of protein. Each shake contained 250 calories, 7 grams of fat, 32 grams of carbohydrate, and 16 grams of protein. No food other than what was provided to the subjects was allowed during each study day, including both time spent in the lab and outside the lab. […] The subjects returned the following morning for the 24 hour blood collection, again in a 10 hour fasted state. The same volume of meal replacement bars or shakes was consumed by each subject during each visit (both in lab and outside lab).
Pharmacokinetic Study. Plasma concentration-time data were evaluated using noncompartmental methods in Phoenix WinNonlin (version 7.0; Pharsight Corporation, Mountain View, Calif) with adjustment for lag time after oral administration. The maximum concentration (Cmax), lag time (talag), and time of maximum concentration (tmax) were determined from the plasma concentration versus time data. The area under the plasma concentration-time curve from time 0 to infinity (was calculated using the trapezoidal rule extrapolated to time infinity). […] The oral clearance (CL/F) was calculated by dividing the oral dose by AUC0-∞. The apparent volume of distribution during the terminal elimination phase (Vz/F) was calculated by dividing CL/F by k. […]

[3] = Fourteen day study of repetitive dosing of theacrine and caffeine: psychometric indices; type: in vivo, human
[4] = system: biomarkers of inflammation; assay: Biomarkers of inflammation in humans; type: in vivo, human; settings: acute inflammatory stressors or chronic consumption
From the text: Theacrine itself can reduce biomarkers of inflammation in humans in response to acute inflammatory stressors (e.g., intense exercise) or chronic consumption. Theacrine is shown to decrease C-reactive protein (CRP), Erythrocyte sedimentation rate (ESR), interleukin-6 (IL-6) and TNF-alpha.

A1 and A2A AR = settings: rats; cited from earlier work
[5] = both sexes, human, plasma, po, 125 mg
[6] = theacrine 125 mg + caffeine 150 mg versus theacrine 125 mg
[7] = theacrine with caffeine co-administration versus theacrine alone

In the case of `Cn1c(=O)c2c(n(C)c1=O)n(C)c(=O)n2C` [Theacrine, 1,3,7,9-tetramethylpurine-2,6,8-trione], the “anxiety (FIG. 6)” value [1] is reported as “decreased substantially”, the “concentration (FIG. 7)” value [1] is reported as “increased substantially” and the “energy (FIG. 7)” value [1] is reported as “increased substantially”. For the same molecule, the “fatigue (FIG. 6)” value [1] was “decreased substantially”, the “libido (FIG. 6)” value [1] was “increased substantially” and the “motivation to exercise (FIG. 7)” value [1] was “increased substantially”. It also gave a Vd/F ([2]; both sexes, human, plasma, oral, theacrine, Condition 4: Theacrine 125 mg + Caffeine 150 mg, mean ± SD) of 35.4 L, a dose-adjusted Cmax ([2]; both sexes, human, plasma, po, 25 mg, Cmax, theacrine in plasma, Condition 1: Theacrine 25 mg single oral dose, dose-adjusted, mean ± SD) of 34.1 ± 38.9 ng/mL/mg and a Vd/F ([2]; both sexes, human, plasma, po, 25 mg, theacrine, Condition 1: Theacrine 25 mg single oral dose, mean ± SD) of 48.1 ± 23.4 L. The Tmax [2, 5] was 1.8 h, the dose-adjusted Cmax ([2]; both sexes, human, plasma, po, 125 mg, Cmax, theacrine in plasma, Condition 2: Theacrine 125 mg single oral dose, dose-adjusted, mean ± SD) was 25.6 ± 5.5 ng/mL/mg and the Vd/F ([2]; both sexes, human, plasma, po, 125 mg, theacrine, Condition 2: Theacrine 125 mg single oral dose, mean ± SD) was 50.5 ± 0.49 L. It also gave an MRT [2, 5] of 36.8 ± 18.9 h, a half-life [2, 5] of 26.1 ± 13.7 h and a dose-adjusted Cmax ([2]; both sexes, human, plasma, po, Cmax, theacrine in plasma, Condition 4: Theacrine 125 mg + Caffeine 150 mg single oral dose, dose-adjusted, mean ± SD) of 38.6 ± 16.6 ng/mL/mg. It also gave an MRT ([2]; both sexes, human, plasma, theacrine, Condition 1: Theacrine 25 mg single oral dose, mean ± SD) of 24.9 ± 3.5 h, a half-life ([2]; both sexes, human, theacrine in plasma, Condition 1: Theacrine 25 mg single oral dose, mean ± SD) of 16.5 ± 2.4 h and a Tmax ([2]; both sexes, human, theacrine in plasma, Condition 1: Theacrine 25 mg single oral dose, median (range)) of 1.8 h. The “time to reach maximal concentration” value ([2]; oral administration of theacrine alone) was no more than 2 h, the “decrease of theacrine oral clearance (CL/F) by caffeine” value [2, 6] was “approximately 30%” and the “decrease of theacrine oral volume of distribution (Vd/F) by caffeine” value [2, 6] was “approximately 30%”. The “theacrine absorption rate (Tmax) and half-life (t1/2) under caffeine co-administration” value ([2]; theacrine 125 mg + caffeine 150 mg versus theacrine alone) was “unaffected”, the “absorption following oral administration” value ([2]; theacrine alone) was “well absorbed” and the “dose-adjusted theacrine pharmacokinetic parameters, 25 mg versus 125 mg” value ([2]; theacrine alone) was “not significantly different”. It also gave an AUC ([2]; theacrine in plasma, Condition 1: Theacrine 25 mg single oral dose, dose-adjusted, mean ± SD) of 809 ± 923 ng·h/mL/mg, an AUC ([2]; theacrine in plasma, Condition 2: Theacrine 125 mg single oral dose, dose-adjusted, mean ± SD) of 736 ± 312 ng·h/mL/mg and a dose-adjusted Cmax ([2]; theacrine in plasma, Condition 4: Theacrine 125 mg + Caffeine 150 mg single oral dose, dose-adjusted, mean ± SD) of 37.7 ± 16.5 ng/mL/mg. For the same molecule, the AUC ([2]; theacrine in plasma, Condition 4: Theacrine 125 mg + Caffeine 150 mg, dose-adjusted, mean ± SD) was 1,242 ± 1,129 hr * ng/mL/mg, the “geometric mean ratio of AUC” value [2, 7] was 1.1 ±0.03 and the “geometric mean ratio of Cmax” value [2, 7] was 1.1 ±0.06. For the same molecule, the CL/F ([2]; theacrine, Condition 1: Theacrine 25 mg single oral dose, mean ± SD) was 2.0 ± 0.9 L/h, the CL/F ([2]; theacrine, Condition 2: Theacrine 125 mg single oral dose, mean ± SD) was 1.6 ± 0.5 L/h and the CL/F ([2]; theacrine, Condition 2: Theacrine 125 mg single oral dose, mean ± SD, listed as theacrine) was 1.6 ± 0.49 L/h. The CL/F ([2]; theacrine, Condition 4: Theacrine 125 mg + Caffeine 150 mg, mean ± SD) was 1.2 ± 0.6 L/h, the CL/F ([2]; theacrine, Condition 4: Theacrine 125 mg + Caffeine 150 mg, mean ± SD, listed as theacrine) was 1.2 L/h and the AUC ([2]; theacrine, theacrine 125 mg alone) was 740 ± 310 ng·h/mL/mg. The AUC ([2]; theacrine, with caffeine co-administration (theacrine 125 mg + caffeine 150 mg)) was 1200 ± 1100 ng·h/mL/mg, the anxiety [3] was “decreased anxiety” and the “psychometric indices of energy, focus, concentration, motivation and mood” value [3] was “still maintained elevated”. The “C-reactive protein (CRP)” value [4] was “decrease”, the “Erythrocyte sedimentation rate (ESR)” value [4] was “decrease” and the TNF-alpha [4] was “decrease”. For the same molecule, the “interleukin-6 (IL-6)” value [4] was “decrease” and the “theacrine stimulating activity under a cocktail containing both A1 and A2A AR antagonists” value (A1 and A2A AR) was “blocks”.
